Measurements published in patent US20250230193A1, “CYCLIC COMPOUND HAVING SELECTIVE KRAS INHIBITORY EFFECT ON HRAS AND NRAS” (CHUGAI SEIYAKU KABUSHIKI KAISHA, priority 2022, published 2025).

Legend:
[1] = molecular target: GDP-bound NRAS wild-type protein (Homo sapiens, UniProt P01111); assay: Binding to NRAS by surface plasmon resonance (SPR), Single Cycle Kinetics; settings: SPR, GDP-bound NRAS wild-type vs GDP-bound KRAS wild-type
[2] = molecular target: GDP-bound HRAS wild-type protein (Homo sapiens, UniProt P01112); assay: Binding to HRAS by surface plasmon resonance (SPR), Single Cycle Kinetics; settings: SPR, GDP-bound HRAS wild-type vs GDP-bound KRAS wild-type
Sequence of GDP-bound HRAS wild-type protein (P01112 whole entry): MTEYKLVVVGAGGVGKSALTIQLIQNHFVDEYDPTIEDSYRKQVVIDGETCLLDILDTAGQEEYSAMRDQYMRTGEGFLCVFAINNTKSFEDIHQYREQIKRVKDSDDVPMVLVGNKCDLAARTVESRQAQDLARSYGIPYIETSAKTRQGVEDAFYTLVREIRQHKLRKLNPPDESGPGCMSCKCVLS

Sequence of GDP-bound NRAS wild-type protein (P01111 whole entry): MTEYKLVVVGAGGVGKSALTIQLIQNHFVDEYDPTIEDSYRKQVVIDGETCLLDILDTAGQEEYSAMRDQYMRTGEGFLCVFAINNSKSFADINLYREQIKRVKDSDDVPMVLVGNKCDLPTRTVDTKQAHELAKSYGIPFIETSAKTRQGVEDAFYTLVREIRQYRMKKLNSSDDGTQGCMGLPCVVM

Row | SMILES | NRAS/KRAS (ratio of KD value with respect to NRAS to KD value with respect to KRAS) [1] | HRAS/KRAS (ratio of KD value with respect to HRAS to KD value with respect to KRAS) [2]
1 | CCCOC[C@H]1C(=O)N[C@@H]([C@@H](C)CC)C(=O)N(C)CC(=O)N(C)[C@H]2C/C=C\CCN(C2=O)[C@@H](Cc2ccc(C)cc2)C(=O)N(C)CC(=O)N[C@@H](CCc2ccc(C(F)(F)F)c(Cl)c2)C(=O)N2C[C@H](CC)C[C@H]2C(=O)NC2(CC(C)(C)C2)C(=O)N(C)[C@@H](C2CCCC2)C(=O)N(C)[C@H](C(=O)N(C)C)CC(=O)N1C [PP2235] | A (a compound having 10 or more and less than 20 is denoted as A) | A (a compound having 10 or more and less than 20 is denoted as A)
2 | CCC[C@H]1C(=O)N[C@@H]([C@@H](C)CC)C(=O)N(C)CC(=O)N(C)[C@H]2C/C=C\CCN(C2=O)[C@@H](Cc2ccc(C)cc2)C(=O)N(C)CC(=O)N[C@@H](CCc2ccc(C(F)(F)F)c(Cl)c2)C(=O)N2C[C@H](CC)C[C@H]2C(=O)NC2(CCC2)C(=O)N(C)[C@@H](C2CCCC2)C(=O)N(C)[C@H](C(=O)N(C)C)CC(=O)N1C [PP2237] | A (a compound having 10 or more and less than 20 is denoted as A) | A (a compound having 10 or more and less than 20 is denoted as A)
3 | CCC[C@@H]1C[C@H]2C(=O)NC3(CCC3)C(=O)N(C)[C@@H](C3CCCC3)C(=O)N(C)[C@H](C(=O)N(C)C)CC(=O)N(C)[C@@H](CCC)C(=O)N[C@@H]([C@@H](C)CC)C(=O)N(C)CC(=O)N(C)[C@H]3C/C=C\CCN(C3=O)[C@@H](Cc3ccc(C)cc3)C(=O)N(C)CC(=O)N[C@@H](CCc3ccc(C(F)(F)F)c(Cl)c3)C(=O)N2C1 [PP2238] | A (a compound having 10 or more and less than 20 is denoted as A) | A (a compound having 10 or more and less than 20 is denoted as A)
4 | CCC[C@H]1C(=O)N[C@@H](C2CCC2)C(=O)N(C)CC(=O)N(C)[C@H]2C/C=C\CCN(C2=O)[C@@H](Cc2ccc(C)cc2)C(=O)N(C)CC(=O)N[C@@H](CCc2ccc(C(F)(F)F)c(F)c2)C(=O)N2C[C@H](OCC)C[C@H]2C(=O)NC2(CC(C)(C)C2)C(=O)N(C)[C@@H](C2CCC2)C(=O)N(C)[C@H](C(=O)N(C)C)CC(=O)N1C [PP2242] | A (a compound having 10 or more and less than 20 is denoted as A) | A (a compound having 10 or more and less than 20 is denoted as A)
5 | CCO[C@@H]1C[C@H]2C(=O)NC3(CC(C)(C)C3)C(=O)N(C)[C@@H](C3CCCC3)C(=O)N(C)[C@H](C(=O)N(C)CC)CC(=O)N(C)[C@H]3CCCCCc4ccc(cc4)C[C@@H](C(=O)N(C)CC(=O)N[C@@H](CCc4ccc(C(F)(F)F)c(OC)c4)C(=O)N2C1)N1CC/C=C\C[C@@H](C1=O)N(C)C(=O)CN(C)C(=O)[C@H]([C@@H](C)CC)NC3=O [PP2259] | A (a compound having 10 or more and less than 20 is denoted as A) | B (a compound having 3 or more and less than 10 is denoted as B)
6 | CCO[C@@H]1C[C@H]2C(=O)NC3(CC(C)(C)C3)C(=O)N(C)[C@@H](C3CCCC3)C(=O)N(C)[C@H](C(=O)N(C)CC)CC(=O)N(C)[C@H]3CCCCCCc4ccc(cc4)C[C@@H](C(=O)N(C)CC(=O)N[C@@H](CCc4ccc(C(F)(F)F)c(OC)c4)C(=O)N2C1)N1CC/C=C\C[C@@H](C1=O)N(C)C(=O)CN(C)C(=O)[C@H]([C@@H](C)CC)NC3=O [PP2260, (1S,7S,11R,13S,19S,22S,26S,29S,35S,37Z)-19-cyclopentyl-11-ethoxy-N-ethyl-7-[2-[3-methoxy-4-(trifluoromethyl)phenyl]ethyl]-N,3,3′,3′,18,21,25,31,34-nonamethyl-29-[(1S)-1-methylpropyl]-2,5,8,14,17,20,24,27,30,33,55-undecaoxo-spiro[3,6,9,15,18,21,25,28,31,34,41-undecazapentacyclo[24.15.11.2^43,46.1^35,41.0^9,13]pentapentaconta-37,43(54),44,46(53)-tetraene-16,1′-cyclobutane]-22-carboxamide] | A (a compound having 10 or more and less than 20 is denoted as A) | A (a compound having 10 or more and less than 20 is denoted as A)
7 | CCO[C@@H]1C[C@H]2C(=O)NC3(CCC3)C(=O)N(C)[C@@H](C3CCCC3)C(=O)N(C)[C@H](C(=O)N(C)C)CC(=O)N(C)[C@H]3CCCCCc4ccc(cc4)C[C@@H](C(=O)N(C)CC(=O)N[C@@H](CCc4cc(F)c(C(F)(F)F)c(F)c4)C(=O)N2C1)N1CC/C=C\C[C@@H](C1=O)N(C)C(=O)CN(C)C(=O)[C@H]([C@@H](C)CC)NC3=O [PP2261] | A (a compound having 10 or more and less than 20 is denoted as A) | A (a compound having 10 or more and less than 20 is denoted as A)
8 | CCO[C@@H]1C[C@H]2C(=O)NC3(CCC3)C(=O)N(C)[C@@H](C3CCCC3)C(=O)N(C)[C@H](C(=O)N(C)C)CC(=O)N(C)[C@H]3CCCCCc4ccc(cc4)C[C@@H](C(=O)N(C)CC(=O)N[C@@H](CCc4ccc(C(F)(F)F)c(OC)c4)C(=O)N2C1)N1CC/C=C\C[C@@H](C1=O)N(C)C(=O)CN(C)C(=O)[C@H]([C@@H](C)CC)NC3=O [PP2262] | A (a compound having 10 or more and less than 20 is denoted as A) | B (a compound having 3 or more and less than 10 is denoted as B)
9 | CCO[C@@H]1C[C@H]2C(=O)NC3(CCC3)C(=O)N(C)[C@@H](C3CCCC3)C(=O)N(C)[C@H](C(=O)N(C)CC)CC(=O)N(C)[C@H]3CCCCCCc4ccc(cc4)C[C@@H](C(=O)N(C)CC(=O)N[C@@H](CCc4ccc(C(F)(F)F)c(OC)c4)C(=O)N2C1)N1CC/C=C\C[C@@H](C1=O)N(C)C(=O)CN(C)C(=O)[C@H]([C@@H](C)CC)NC3=O [PP2263] | A (a compound having 10 or more and less than 20 is denoted as A) | A (a compound having 10 or more and less than 20 is denoted as A)
10 | CCO[C@@H]1C[C@H]2C(=O)NC3(CCC3)C(=O)N(C)[C@@H](C3CCCC3)C(=O)N(C)[C@H](C(=O)N(C)C)CC(=O)N(C)[C@H]3CCCCCCc4ccc(cc4)C[C@@H](C(=O)N(C)CC(=O)N[C@@H](CCc4ccc(C(F)(F)F)c(OC)c4)C(=O)N2C1)N1CC/C=C\C[C@@H](C1=O)N(C)C(=O)CN(C)C(=O)[C@H]([C@@H](C)CC)NC3=O [PP2264] | AA (a compound having 20 or more is denoted as AA) | A (a compound having 10 or more and less than 20 is denoted as A)
11 | CC[C@H](C)[C@@H]1NC(=O)[C@H](CC(C)C)N(C)C(=O)C[C@@H](C(=O)N(C)C)N(C)C(=O)[C@H](C2CCCC2)N(C)C(=O)C2(CCCC2)NC(=O)[C@@H]2C[C@H](C)CN2C(=O)[C@H](CCc2cc(F)c(C(F)(F)F)c(F)c2)NC(=O)CN(C)C(=O)[C@H](Cc2ccc(C(F)(F)F)cc2)N2CC/C=C\C[C@@H](C2=O)N(C)C(=O)CN(C)C1=O [PP2268] | A (a compound having 10 or more and less than 20 is denoted as A) | A (a compound having 10 or more and less than 20 is denoted as A)
12 | CCO[C@@H]1C[C@H]2C(=O)NC3(CCCC3)C(=O)N(C)[C@@H](C3CCCC3)C(=O)N(C)[C@H](C(=O)N(C)C)CC(=O)N(C)[C@@H](CC(C)C)C(=O)N[C@@H]([C@@H](C)CC)C(=O)N(C)CC(=O)N(C)[C@H]3C/C=C\CCN(C3=O)[C@@H](Cc3ccc(C(F)(F)F)cc3)C(=O)N(C)CC(=O)N[C@@H](CCc3cc(F)c(Cl)c(F)c3)C(=O)N2C1 [PP2269] | A (a compound having 10 or more and less than 20 is denoted as A) | A (a compound having 10 or more and less than 20 is denoted as A)
13 | CCC[C@H]1C(=O)N[C@@H]([C@@H](C)CC)C(=O)N(C)CC(=O)N(C)[C@H]2C/C=C\CCN(C2=O)[C@@H](Cc2ccc(C(F)(F)F)cc2)C(=O)N(C)CC(=O)N[C@@H](CCc2ccc(C(F)(F)F)c(Cl)c2)C(=O)N2C[C@@H](C)C[C@H]2C(=O)NC2(CC(C)(C)C2)C(=O)N(C)[C@@H](C2CCCC2)C(=O)N(C)[C@H](C(=O)N(C)C)CC(=O)N1C [PP2270] | B (a compound having 3 or more and less than 10 is denoted as B) | B (a compound having 3 or more and less than 10 is denoted as B)
14 | CC[C@@H]1C[C@H]2C(=O)NC3(CCCC3)C(=O)N(C)[C@@H](C3CCCC3)C(=O)N(C)[C@H](C(=O)N(C)CC)CC(=O)N(C)[C@@H](C)C(=O)N[C@@H]([C@@H](C)CC)C(=O)N(C)CC(=O)N(C)[C@H]3C/C=C\CCN(C3=O)[C@@H](Cc3ccc(C(F)(F)F)cc3)C(=O)N(C)CC(=O)N[C@@H](CCc3cc(F)c(C(F)(F)F)c(F)c3)C(=O)N2C1 [PP2271] | A (a compound having 10 or more and less than 20 is denoted as A) | A (a compound having 10 or more and less than 20 is denoted as A)
15 | CCC[C@@H]1C[C@H]2C(=O)NC3(CCCC3)C(=O)N(C)[C@@H](C3CCCC3)C(=O)N(C)[C@H](C(=O)N(C)CC)CC(=O)N(C)[C@@H](C)C(=O)N[C@@H]([C@@H](C)CC)C(=O)N(C)CC(=O)N(C)[C@H]3C/C=C\CCN(C3=O)[C@@H](Cc3ccc(C(F)(F)F)cc3)C(=O)N(C)CC(=O)N[C@@H](CCc3cc(F)c(C(F)(F)F)c(F)c3)C(=O)N2C1 [PP2272] | AA (a compound having 20 or more is denoted as AA) | A (a compound having 10 or more and less than 20 is denoted as A)
